Patent US20190185479A1, “BICYCLIC NITROGENATED HETEROCYCLIC COMPOUND” (MITSUBISHI TANABE PHARMA CORPORATION, priority 2016, published 2019)

Assays:
Format in all cases: biochemical
hPDE7B = biological target: T1, hPDE7B (Homo sapiens, UniProt Q9NP56); test: PDE7 selectivity test (Ki value), Experimental Example 2: hPDE7B; conditions: Ki from IC50 by Cheng-Prusoff, read-out: PDE inhibition constant Ki, PDE7
T1 construct: made in house; host or cells: COS-7 cells
Protocol: (§1) hPDE1A, hPDE2A, hPDE3A, hPDE4D, hPDE5A, and hPDE8B were purchased from SB Drug Discovery. hPDE7B was isolated by the same method as [Method for preparing samples 1], and hPDE9A, hPDE10A, and hPDE11A were isolated by the same method as hPDE7B, i.e., isolated from COS-7 cells transfected with plasmids encoding each PDE. PDE6 was purified and isolated from bovine retina (bovine PDE6).
(§2) Prior to the calculation of Ki value, Km value of each PDE against cAMP or cGMP was calculated. Each PDE diluted with an assay buffer so that it would have an appropriate enzyme activity, and six or more concentrations of cAMP or cGMP were reacted at room temperature for 60 minutes. Regarding PDE using cAMP as a substrate, PDELight (trademark) HTS cAMP phosphodiesterase Kit (Lonza) was used to measure a degradation product, 5′-AMP. Also, regarding PDE using cGMP as a substrate, […] of perchloric acid was added to the mixture to stop the reaction, and the resulting mixture was subjected to LC-MS/MS to measure the residual cGMP concentration. The amount of degraded substrate in each substrate concentration was calculated, the concentration of the added substrate was plotted on the horizontal axis, the amount of degraded substrate was plotted on the vertical axis, and Km value was calculated by non-linear regression on the basis of Michaelis-Menten equation. Km value (substrate) of each PDE was hPDE1A: 4.3 (cGMP), hPDE2A: 36 (cAMP), hPDE3A: 0.11 (cAMP), hPDE4D: 0.90 (cAMP), hPDE5A: 3.9 (cGMP), bovine PDE6:9.8 (cGMP), hPDE7B: 0.015 (cAMP), hPDE8B: 0.63 (cAMP), hPDE9A: 0.0037 (cGMP), hPDE10A: 0.051 (cAMP), and hPDE11A: 1.4 (cAMP) μmol/L, respectively.
(§3) Next, PDE inhibition assay of a compound was carried out using each PDE. The PDE inhibition assay was basically carried out by the same enzyme reaction method as [Assay procedure 1], and the degraded amount of cAMP or cGMP was measured by the same method as [Assay procedure 2]. In the assay, a concentration approximated to Km value of each PDE against cAMP or cGMP was used as a substrate concentration. Meanwhile, regarding hPDE5A, hPDE8B, and hPDE9A, IMAP (trademark) FP Phosphodiesterase Evaluation Assay Kit (Molecular Devices) was used to measure the degradation of FAM-cAMP or FAM-cGMP by fluorescence depolarization technique.
(§4) Each compound was evaluated at six or more concentrations with common ratio 10. Each inhibition rate was calculated according to <Method for data calculation 1>, and then each IC50 value was calculated by sigmoid regression. The resulting IC50 value was used in the following Cheng-Prusoff equation to calculate each Ki value. Ki=IC50/(1+[S]/Km), wherein [S] represents a substrate concentration used

hPDE4D = biological target: T2, hPDE4D (Homo sapiens, UniProt Q08499); test: PDE7 selectivity test (Ki value), Experimental Example 2: hPDE4D; conditions: Ki from IC50 by Cheng-Prusoff, read-out: PDE inhibition constant Ki, PDE4
T2 construct: purchased SB Drug Discovery
T2 sequence (Q08499 whole entry): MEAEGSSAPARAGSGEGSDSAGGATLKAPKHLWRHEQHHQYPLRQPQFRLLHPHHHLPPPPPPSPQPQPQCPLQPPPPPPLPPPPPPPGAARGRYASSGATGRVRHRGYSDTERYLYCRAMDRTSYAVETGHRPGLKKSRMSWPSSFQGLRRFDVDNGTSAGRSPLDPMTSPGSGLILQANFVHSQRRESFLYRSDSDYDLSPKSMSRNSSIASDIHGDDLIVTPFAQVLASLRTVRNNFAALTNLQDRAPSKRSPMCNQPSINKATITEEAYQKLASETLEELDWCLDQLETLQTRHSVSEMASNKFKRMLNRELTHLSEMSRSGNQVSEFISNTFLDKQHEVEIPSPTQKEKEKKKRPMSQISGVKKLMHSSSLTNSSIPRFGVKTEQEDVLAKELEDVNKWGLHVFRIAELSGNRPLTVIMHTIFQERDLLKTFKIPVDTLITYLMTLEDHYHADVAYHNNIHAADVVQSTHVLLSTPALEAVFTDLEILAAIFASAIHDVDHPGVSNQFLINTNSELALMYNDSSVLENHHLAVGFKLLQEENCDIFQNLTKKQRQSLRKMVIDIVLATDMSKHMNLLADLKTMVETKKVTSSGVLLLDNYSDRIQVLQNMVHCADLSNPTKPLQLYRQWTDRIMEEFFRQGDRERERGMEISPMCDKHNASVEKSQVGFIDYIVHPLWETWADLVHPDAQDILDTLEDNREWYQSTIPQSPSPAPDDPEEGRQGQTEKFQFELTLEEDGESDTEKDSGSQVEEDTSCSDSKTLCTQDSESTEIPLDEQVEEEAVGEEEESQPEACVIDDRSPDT
Protocol: as §1, §2, §3, §4

hPDE2A = biological target: T3, hPDE2A (Homo sapiens, UniProt O00408); test: PDE7 selectivity test (Ki value), Experimental Example 2: hPDE2A; conditions: Ki from IC50 by Cheng-Prusoff, read-out: PDE inhibition constant Ki, PDE2
T3 construct: purchased SB Drug Discovery
T3 sequence (O00408 whole entry): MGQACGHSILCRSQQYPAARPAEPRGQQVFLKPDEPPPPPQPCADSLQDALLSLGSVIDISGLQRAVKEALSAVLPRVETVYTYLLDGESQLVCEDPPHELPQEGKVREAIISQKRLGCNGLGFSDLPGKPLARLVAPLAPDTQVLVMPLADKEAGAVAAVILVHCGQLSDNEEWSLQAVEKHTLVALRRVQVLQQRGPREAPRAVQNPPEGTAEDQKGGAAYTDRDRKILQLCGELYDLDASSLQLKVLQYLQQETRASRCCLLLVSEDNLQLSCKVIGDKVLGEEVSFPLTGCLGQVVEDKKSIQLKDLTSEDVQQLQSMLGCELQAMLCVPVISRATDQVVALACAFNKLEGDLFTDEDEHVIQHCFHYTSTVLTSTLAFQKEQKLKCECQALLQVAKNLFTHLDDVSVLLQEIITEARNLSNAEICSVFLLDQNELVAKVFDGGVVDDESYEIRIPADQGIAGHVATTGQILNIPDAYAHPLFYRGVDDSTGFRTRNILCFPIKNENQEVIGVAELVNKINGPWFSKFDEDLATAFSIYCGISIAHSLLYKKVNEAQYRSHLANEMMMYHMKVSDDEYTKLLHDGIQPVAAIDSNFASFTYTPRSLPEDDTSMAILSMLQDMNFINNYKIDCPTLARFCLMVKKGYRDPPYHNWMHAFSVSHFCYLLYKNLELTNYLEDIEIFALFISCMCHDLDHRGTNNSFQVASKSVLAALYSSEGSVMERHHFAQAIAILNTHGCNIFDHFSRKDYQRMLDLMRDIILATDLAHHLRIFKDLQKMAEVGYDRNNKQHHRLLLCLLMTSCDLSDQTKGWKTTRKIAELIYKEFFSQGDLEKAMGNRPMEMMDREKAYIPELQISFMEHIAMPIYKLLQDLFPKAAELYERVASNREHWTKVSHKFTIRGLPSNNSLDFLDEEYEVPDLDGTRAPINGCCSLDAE
Protocol: as §1, §2, §3, §4

hPDE8B = biological target: T4, hPDE8B (Homo sapiens, UniProt O95263); test: PDE8 inhibition assay (IC50), Experimental Example 3; conditions: hPDE8B; read-out: PDE inhibition assay IC50, PDE8
T4 construct: purchased SB Drug Discovery
How it was run: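 Recombinant human enzymes incubated with compound and 3 nmol/L cAMP (final) in Tris-HCl pH 7.5 buffer with MgCl2, BSA, DTT, 2% DMSO final, 60 min at room temperature. Residual cAMP measured by TR-FRET (LANCE Ultra), reaction stopped with 0.5 mmol/L IBMX. IC50 from inhibition relative to no-compound (0%) and no-enzyme (100%) controls.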

hPDE9A = biological target: T5, hPDE9A (Homo sapiens, UniProt O76083); test: PDE7 selectivity test (Ki value), Experimental Example 2: hPDE9A; conditions: Ki from IC50 by Cheng-Prusoff, read-out: PDE inhibition constant Ki, PDE9
T5 construct: made in house; host or cells: COS-7 cells
T5 sequence (O76083 whole entry): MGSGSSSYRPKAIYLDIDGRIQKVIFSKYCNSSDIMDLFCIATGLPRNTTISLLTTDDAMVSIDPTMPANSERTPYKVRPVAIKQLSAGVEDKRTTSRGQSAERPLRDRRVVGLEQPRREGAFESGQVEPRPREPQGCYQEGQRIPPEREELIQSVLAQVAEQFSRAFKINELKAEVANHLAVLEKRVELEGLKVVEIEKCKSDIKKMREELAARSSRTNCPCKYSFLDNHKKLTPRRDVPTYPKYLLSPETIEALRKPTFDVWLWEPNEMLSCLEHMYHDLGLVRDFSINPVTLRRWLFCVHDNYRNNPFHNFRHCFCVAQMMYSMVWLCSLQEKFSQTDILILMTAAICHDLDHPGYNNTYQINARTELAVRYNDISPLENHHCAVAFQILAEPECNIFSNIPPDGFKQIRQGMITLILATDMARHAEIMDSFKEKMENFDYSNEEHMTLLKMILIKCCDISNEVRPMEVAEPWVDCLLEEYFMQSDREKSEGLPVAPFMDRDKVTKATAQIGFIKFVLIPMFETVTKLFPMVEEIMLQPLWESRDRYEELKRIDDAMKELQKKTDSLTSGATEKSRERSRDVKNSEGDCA
Protocol: as §1, §2, §3, §4

hPDE1A = biological target: T6, hPDE1A (Homo sapiens, UniProt P54750); test: PDE7 selectivity test (Ki value), Experimental Example 2: hPDE1A; conditions: Ki from IC50 by Cheng-Prusoff, read-out: PDE inhibition constant Ki, PDE1
T6 construct: purchased SB Drug Discovery
T6 sequence (P54750 whole entry): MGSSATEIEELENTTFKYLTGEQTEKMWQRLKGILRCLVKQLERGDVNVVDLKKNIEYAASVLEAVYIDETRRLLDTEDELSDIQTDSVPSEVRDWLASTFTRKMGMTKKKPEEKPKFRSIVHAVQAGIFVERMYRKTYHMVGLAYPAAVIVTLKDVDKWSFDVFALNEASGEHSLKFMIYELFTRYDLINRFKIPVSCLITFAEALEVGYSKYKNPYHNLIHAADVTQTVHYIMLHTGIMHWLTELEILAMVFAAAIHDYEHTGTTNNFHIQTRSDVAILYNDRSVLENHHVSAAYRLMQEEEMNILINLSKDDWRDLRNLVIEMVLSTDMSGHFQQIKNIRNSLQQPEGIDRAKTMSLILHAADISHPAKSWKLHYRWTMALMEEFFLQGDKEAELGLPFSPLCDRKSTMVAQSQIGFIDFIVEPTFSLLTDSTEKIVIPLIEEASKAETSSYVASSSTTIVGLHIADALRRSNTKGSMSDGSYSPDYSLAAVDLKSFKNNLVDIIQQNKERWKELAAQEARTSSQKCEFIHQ
Protocol: as §1, §2, §3, §4

hPDE3A = biological target: T7, hPDE3A (Homo sapiens, UniProt Q14432); test: PDE7 selectivity test (Ki value), Experimental Example 2: hPDE3A; conditions: Ki from IC50 by Cheng-Prusoff, read-out: PDE inhibition constant Ki, PDE3
T7 construct: purchased SB Drug Discovery
T7 sequence (Q14432 whole entry): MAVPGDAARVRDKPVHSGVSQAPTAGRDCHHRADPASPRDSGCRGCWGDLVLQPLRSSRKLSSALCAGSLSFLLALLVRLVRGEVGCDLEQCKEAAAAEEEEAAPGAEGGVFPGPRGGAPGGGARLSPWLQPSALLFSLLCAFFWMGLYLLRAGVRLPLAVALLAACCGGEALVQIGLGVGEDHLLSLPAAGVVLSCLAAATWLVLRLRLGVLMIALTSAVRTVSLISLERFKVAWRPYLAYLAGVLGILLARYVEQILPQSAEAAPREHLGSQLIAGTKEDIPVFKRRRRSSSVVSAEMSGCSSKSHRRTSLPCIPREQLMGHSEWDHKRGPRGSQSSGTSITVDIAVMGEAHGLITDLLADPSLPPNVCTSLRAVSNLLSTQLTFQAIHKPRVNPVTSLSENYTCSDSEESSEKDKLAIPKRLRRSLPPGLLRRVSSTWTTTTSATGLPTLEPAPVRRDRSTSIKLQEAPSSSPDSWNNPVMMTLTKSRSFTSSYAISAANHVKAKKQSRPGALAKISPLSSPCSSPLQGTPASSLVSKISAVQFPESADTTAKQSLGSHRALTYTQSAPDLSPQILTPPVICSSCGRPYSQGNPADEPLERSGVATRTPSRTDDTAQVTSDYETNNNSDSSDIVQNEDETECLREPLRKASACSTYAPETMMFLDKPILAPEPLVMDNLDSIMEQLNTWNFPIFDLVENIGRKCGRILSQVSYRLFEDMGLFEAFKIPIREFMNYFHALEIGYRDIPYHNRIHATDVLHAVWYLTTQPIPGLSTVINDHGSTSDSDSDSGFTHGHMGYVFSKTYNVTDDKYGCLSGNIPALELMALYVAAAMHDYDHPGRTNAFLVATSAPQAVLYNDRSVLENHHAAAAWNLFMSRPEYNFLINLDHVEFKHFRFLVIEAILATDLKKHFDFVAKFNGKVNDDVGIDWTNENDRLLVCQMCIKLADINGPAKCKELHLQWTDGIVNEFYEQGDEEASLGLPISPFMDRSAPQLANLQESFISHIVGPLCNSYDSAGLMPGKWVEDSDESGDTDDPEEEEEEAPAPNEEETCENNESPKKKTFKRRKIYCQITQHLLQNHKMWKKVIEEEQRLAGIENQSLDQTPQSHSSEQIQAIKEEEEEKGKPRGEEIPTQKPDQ
Protocol: as §1, §2, §3, §4

T1 sequence (Q9NP56 whole entry): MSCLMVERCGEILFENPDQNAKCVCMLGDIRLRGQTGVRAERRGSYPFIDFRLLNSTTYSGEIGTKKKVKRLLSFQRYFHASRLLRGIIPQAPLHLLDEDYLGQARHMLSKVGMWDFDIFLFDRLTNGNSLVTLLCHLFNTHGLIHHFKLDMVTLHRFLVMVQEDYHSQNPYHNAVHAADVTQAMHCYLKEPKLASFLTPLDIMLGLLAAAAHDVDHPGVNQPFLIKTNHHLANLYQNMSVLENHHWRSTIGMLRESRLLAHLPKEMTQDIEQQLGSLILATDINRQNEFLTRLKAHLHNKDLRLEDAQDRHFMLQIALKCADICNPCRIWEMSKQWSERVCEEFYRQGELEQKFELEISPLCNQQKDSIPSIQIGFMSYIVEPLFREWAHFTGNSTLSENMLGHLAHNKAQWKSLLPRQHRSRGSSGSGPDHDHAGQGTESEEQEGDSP

Row | Ki (hPDE7B) [µM] | Ki (hPDE4D) [µM] | Ki (hPDE2A) [µM] | IC50 (hPDE8B) [µM] | Ki (hPDE9A) [µM] | Ki (hPDE1A) [µM] | Ki (hPDE3A) [µM] | Compound
1 | 0.031 | 4.4 | 27 | 0.7 | > 3.6 | > 52 | > 52 | Nc1ncnc2c1nnn2C1CCCCC1 [Example 3, 3-cyclohexyl-3H-[1,2,3]triazolo[4,5-d]pyrimidin-7-amine]
2 | 0.027 | 0.22 | 6.6 | – | > 0.36 | > 5.2 | > 5.2 | Cc1nc(N)c2nnn(C3CCCCC3)c2n1 [Example 4]
3 | 0.012 | 4.2 | 10 | 5.33 | > 3.6 | 39 | > 52 | CC1CCCCC1n1nnc2c(N)ncnc21 (single isomer, unassigned) [Example 191, 3-(cis-2-methylcyclohexyl)-3H-[1,2,3]triazolo[4,5-d]pyrimidin-7-amine]
4 | 0.031 | > 4.8 | > 5.1 | 1.77 | > 0.36 | > 5.2 | > 5.2 | Nc1nccn2c(C3CCCCC3)nnc12 [Example 141, 3-cyclohexyl[1,2,4]triazolo[4,3-a]pyrazin-8-amine]
5 | 0.003 | 1.2 | 14 | 1.75 | > 3.6 | 8.9 | 43 | C[C@@H]1CCC[C@H](c2nnc3c(N)nccn23)C1 [Example 204, 3-[(1S,3R)-3-methylcyclohexyl][1,2,4]triazolo[4,3-a]pyrazin-8-amine]
